Data: US8974837B2, “Pharmaceutical composition comprising an extract of Pseudolysimachion longifolium and the catalpol derivatives isolated therefrom having antiinflammatory, antiallergic and antiasthmatic activity” (Korea Research Institute of Bioscience and Biotechnology, priority 2005, dated 2015)

What was measured:
Promyelotic HL-60 cells = test: MTT assay, cytotoxic effect on HL-60 cells; format: cell-based
Procedure: (§1) To investigate the cytotoxic effect of inventive extract of P. longifolium extract and the compound isolated therefrom was determined by (3-[4,5-dimethylthiazol-2-yl]-2,5-diphenyl tetrazolium bromide(MTT) assay method (Wang Z et al., Biol., Pharm. Bull., 24, pp 159-162, 2001).
(§2) Promyelotic HL-60 cells (HL-18103, 5×10^5 cells/ml) were seeded in 96-well plates under NGF-free condition. After 24 hours incubation, the cells were treated with the mixture of samples dissolved in 10 μl of DMSO and 10 μl of MTT solution (5 mg/ml), and incubated for 4 hours under similar condition. 4 hours later, MTT was removed and 100 μl of DMSO was dropped into each well to dissolve crystals. At 570 nm, UV absorbance was measured by microplate reader (BIO-RAD, U.S.A.) to calculate the cell viability.

[1] = MTT assay, cytotoxic effect on HL-60 cells; format: cell-based; conditions: human, HL-60 promyelocytic cells, read-out: Cell viability (%)
Procedure: as §1, §2

OVA-challenged mice [2] = test: OVA-induced eosinophilia: inflammatory cell counts in bronchoalveolar lavage fluid; format: in vivo, BALB/c mice; conditions: from OVA-treated control group; 48 hours after last challenge
Description: (§3) Specific pathogen-free female BALB/c mice aged 8-10 weeks, which were routinely screened serologically for relevant respiratory pathogens, were purchased from ORIENT Co Ltd (Seoul, Korea).
(§4) Following treatment: (1) sham-sensitization plus challenge with phosphate-buffered saline (PBS; ipNeb); (2) sensitization plus challenge with OVA (ovalbumin: Sigma A5503; Sigma, St. Louis, Mo.)(ipNeb); (3) sensitization with OVA (i.p.) plus challenge with OVA (Neb) and samples (extract of P. longifolium or montelukast) was performed to Group of mice (n=5). Briefly, mice were sensitized by intraperitoneal injection of 20 μg OVA, which was emulsified with 2 mg aluminum hydroxide in 100 μl of PBS buffer (pH 7.4) on days 0 and 14. The mice were challenged through the airways with OVA (1% in PBS) for 20 min using an ultrasonic nubuilizer (NE-U12; Omron Corp., Tokyo, Japan) on days 28, 29 and 30 after the initial sensitization. The mice were sacrificed 48 h after the last challenge (day 32) to determine the suppression effect of extract of P. longifolium or verproside on the airways of allergic asthma.
(§5) The extract of P. longifolium, and verproside were suspended in PBS and administered intragastrically using a 25-gauge stainless steel blunt feeding needle 1 h before each challenge, and control animals were exposed only on the PBS solution. As a positive control, montelukast (MSD Korea Ltd., Seoul, Korea) was treated with the same procedure in the experiment.
The mice were sacrificed with an overdose of pentobarbital (Sigma P3761) […] after the last challenge, and a tracheotomy was performed. After ice-cold 0.5 ml of PBS was instilled into the lungs, bronchoalveolar lavage fluid (BALF) was obtained by aspiration three times (total 1.5 ml) via tracheal cannulation (Yamazaki T, J. Jap. Bot., 43, pp 117-24, 1968)
The total inflammatory cell number was assessed by counting cells in at least five squares of a hemocytometer after excluding dead cells confirmed by staining with trypan blue (Daigle I. et al., Swiss Med Wkly, 131, pp 231-7, 2001). 100 μl of BALF was loaded onto a slide and centrifuged (200×g, 4° C., 10 min) to fix the cells onto the slide using a cytospine machine (Hanil Science Industrial, Korea). The cells were stained by Diff-Quick® Stain reagents (Sysmex, Cat No. 38721, Switzerland) according to the manufacturer's instructions. Statistical significance was determined by Student's two-tailed t-test for independent means and the critical level for significance was set at P<0.05.
To evaluate the suppression of verproside on the eosinophilia in OVA-challenged mice, the recruited cells in BALF were counted 48 hours after the last challenge. OVA caused a marked influx of leucocytes into the BALF from a PBS control group.

OVA-challenged mice [3] = test: Lung histology (H&E and PAS staining) in OVA-challenged mice; format: in vivo, BALB/c mice; conditions: for mucus area score: PAS, five-point system 0-4, OVA-treated mice 3.60±0.64, FIG. 5
Procedure: as §4, §5
To estimate the suppressive effect of verproside on the eosinophilia, lung tissues were collected 48 hours after the last challenge. The lung tissue was fixed for 24 h in 10% neutral-buffered formalin. After being embedded in paraffin, it is sliced into 4-μm thickness of sections and the tissue was stained with H&E solution (hematoxylin; Sigma MHS-16 and eosin, Sigma HT110-I-32).
In Periodic acid Schiff (PAS) staining, mucus overproduction in the OVA-treated mice was clearly observed as a violet color in the bronchial airways compared with the normal mice. […] Goblet-cell hyperplasia in the airway epithelium was quantified based on a five-point system: 0, no goblet cells; 1, <25% of the epithelium; 2, 25-50% of the epithelium; 3, 50-75% of the epithelium; 4, >75% of the epithelium. For each mouse, five airway sections that were randomly distributed throughout the left lung were analysed, and their average scores were calculated. Quantitative analysis of mucus production was performed using an image analyzer (Leica Microsystem Imaging solution Ltd.; Cambridge, UK).

IgE = test: Measurement of IgE by ELISA in plasma and BALF of OVA-challenged mice; format: in vivo, mouse; conditions: for IgE level in BALF: OVA-treated mice 59.4±38.4; for IgE level in plasma: OVA-treated mice 85.6±17.3
Procedure: as §4, §5
Complementary capture and detection antibody pairs for mouse IgE antibodies were purchased from PharMingen (San Diego, Calif.), and the IgE enzyme-linked immunosorbent assay (ELISA) was performed according to the manufacturer's directions. Duplicate samples in plasma were diluted to 1:100. IgE levels in each sample were measured from optical density readings at 450 nm, and IgE concentrations were calculated from a standard curve that was generated using recombinant IgE (5-2,000 ng/ml). The amount of IL-4 and IL-13 contained in BALF was measured with a specific mouse ELISA kit (R&D Systems; Minneapolis, Minn.). The detection limit of the assays was 250 pg/ml.

IL-4 = test: Measurement of IL-4 in BALF by ELISA in OVA-induced asthmatic mice; format: in vivo, mouse; conditions: from OVA-challenged group; 48 hours after last challenge
Procedure: (§6) Following treatment: (1) sham-sensitization plus challenge with phosphate-buffered saline (PBS; ipNeb); (2) sensitization plus challenge with OVA (ovalbumin: Sigma A5503; Sigma, St. Louis, Mo.)(ipNeb); (3) sensitization with OVA (i.p.) plus challenge with OVA (Neb) and samples (extract of P. longifolium or montelukast) was performed to Group of mice (n=5). Briefly, mice were sensitized by intraperitoneal injection of 20 μg OVA, which was emulsified with 2 mg aluminum hydroxide in 100 μl of PBS buffer (pH 7.4) on days 0 and 14. […]
(§7) Complementary capture and detection antibody pairs for mouse IgE antibodies were purchased from PharMingen (San Diego, Calif.), and the IgE enzyme-linked immunosorbent assay (ELISA) was performed according to the manufacturer's directions. […] IgE levels in each sample were measured from optical density readings at 450 nm, and IgE concentrations were calculated from a standard curve that was generated using recombinant IgE (5-2,000 ng/ml). The amount of IL-4 and IL-13 contained in BALF was measured with a specific mouse ELISA kit (R&D Systems; Minneapolis, Minn.). […]
(§8) To determine the effect of verproside on cytokine release in the OVA-induced asthmatic mice, the levels of cytokines (IL-4 and IL-13) in BALF were measured using ELISA 48 hours after the last challenge. […]

IL-13 = test: Measurement of IL-13 in BALF by ELISA in OVA-induced asthmatic mice; format: in vivo, mouse; conditions: from OVA-challenged group; 48 hours after last challenge
Procedure: as §6, §7, §8

[4] = system: OVA-sensitized/challenged mouse model; test: Airway hyperresponsiveness (AHR), Penh values in OVA-challenged mice; format: in vivo, BALB/c mice; conditions: 24 hours after final OVA challenge; FIG. 1
Procedure: The AHR was evaluated by calculation Penh values (enhanced pause) 24 hours after the final OVA challenge.
as §3
as §4, with “asthma. […]” for “asthma.”

SMILES: COc1ccc(C(=O)O[C@H]2[C@@H]3C=CO[C@@H](O[C@@H]4O[C@H](CO)[C@@H](O)[C@H](O)[C@H]4O)[C@@H]3[C@@]3(CO)O[C@@H]23)cc1OC [6-O-veratroyl catalpol, 6-O-(3,4-dimethoxybenzoyl) catalpol]
- Cell viability (%) (Promyelotic HL-60 cells; 50 μM): 116%
- Cell viability (%) (Promyelotic HL-60 cells; 100 μM): 114%

SMILES: COc1ccc(/C=C/C(=O)O[C@H]2[C@@H]3C=CO[C@@H](O[C@@H]4O[C@H](CO)[C@@H](O)[C@H](O)[C@H]4O)[C@@H]3[C@@]3(CO)O[C@@H]23)cc1O [Minecoside, 6-O-3-hydroxy-4-methozycinnamoyl catalpol]
- viability at 4 h, 50 µM ([1]; 50 μM): 98%
- viability at 4 h, 100 µM ([1]; 100 μM): 95%

SMILES: CC(C)(O)c1ccccc1CC[C@@H](SCC1(CC(=O)O)CC1)c1cccc(/C=C/c2ccc3ccc(Cl)cc3n2)c1 [montelukast, reference compound]
- decrease in eosinophils in BALF (OVA-challenged mice [2]): 80.7±11.1%
- decrease in total cells in BALF (OVA-challenged mice [2]): 78.3±12.1%
- mucus area score (OVA-challenged mice [3]): 1.53±0.24
- IgE level in BALF (IgE): 3.8 ± 0.7 ng/mL
- IgE level in plasma (IgE): 31.4 ± 14.2 µg/mL
- decrease in IL-4 in BALF (IL-4): 69.5±22.0%
- decrease in IL-13 in BALF (IL-13): 84.5±8.2%

SMILES: O=C(O[C@H]1[C@@H]2C=CO[C@@H](O[C@@H]3O[C@H](CO)[C@@H](O)[C@H](O)[C@H]3O)[C@@H]2[C@@]2(CO)O[C@@H]12)c1ccc(O)c(O)c1 [verproside, 6-O-3,4-Dihydroxybenzoyl catalpol]
- Cell viability (%) (Promyelotic HL-60 cells; 50 μM): 105%
- Cell viability (%) (Promyelotic HL-60 cells; 100 μM): 102%
- Penh value compared with OVA-treated group (in words) [4]: significantly reduced
- decrease in eosinophils in BALF (OVA-challenged mice [2]): 86.2±7.2%
- decrease in total cells in BALF (OVA-challenged mice [2]): 79.3±13.1%
- mucus area score (OVA-challenged mice [3]): 1.43±0.23
- infiltration of eosinophil-rich leukocytes in lung tissue (H&E) (OVA-challenged mice [3]; compared with OVA-treated mice, 48 hours after last challenge, FIG. 3): significantly attenuated
- mucus in bronchial airways (PAS staining) (OVA-challenged mice [3]; compared with OVA-treated mice, FIG. 4): markedly diminished
- IgE level in BALF (IgE): 21.5 ± 11.2 ng/mL
- IgE level in plasma (IgE): 40.2 ± 13.2 µg/mL
- decrease in IL-4 in BALF (IL-4): 64.5±27.7%
- decrease in IL-13 in BALF (IL-13): 74.9±15.5%
